In patent US20190231785A1, “PHOSPHODIESTERASE INHIBITOR TREATMENT” (Cyrano Therapeutics, Inc., priority 2012, published 2019):

System: asthmatic patients
Assay: sGaw after dry powder inhalation, dose escalating single blind study (Examples 5 and 6)
Settings: 1 mg IBMX
Experimental: To test this theory, asthmatic patients are enrolled in a dose escalating single blind study. On arrival to the clinic, subjects are allowed to rest for 20 minutes before baseline measurements of FEV1 (six recordings) and sGaw (five recordings) are made. Subjects receive a dry powder dispenser loaded with a dose of 2 mg theophylline or a dry powder carrier. […] After each inhalation, measurements of sGaw are made at 1, 3, 5, 10, 15, 20, 25, and 30 minutes.
On completion of the last recording, subjects inhale a 200 μg dose of salbutamol from a metered inhaler and a further measurement of sGaw is made after 15 minutes. Subjects are also monitored for coughing and are questioned about the taste of the drug.
Asthmatic patients are enrolled in a dose escalating single blind study. On arrival to the clinic, subjects are allowed to rest for 20 minutes before baseline measurements of FEV1 (six recordings) and sGaw (five recordings) are made. Subjects receive a dry powder dispenser loaded with a dose of 1 mg IBMX formulated as a dry powder or a dry powder carrier. […] After each inhalation, measurements of sGaw are made at 1, 3, 5, 10, 15, 20, 25, and 30 minutes.
On completion of the last recording, subjects inhale a 200 μg dose of salbutamol from a metered inhaler and a further measurement of sGaw mad after 15 minutes. Subjects are also be monitored for coughing and are questioned about the taste of the drug.

CC(C)Cn1c(=O)n(C)c(=O)c2[nH]cnc21 [IBMX, 3-isobutyl-1-methylxanthine]
increase in sGaw compared with 200 μg salbutamol: comparable with that produced by salbutamol
sGaw above the baseline measurement after 30 minutes: 20%
time until sGaw baseline is reached: one and a half
